The results in this text go back to ChEMBL document CHEMBL4739717, “Methods of treating cartilage disorders through inhibition of clk and dyrk” (2020).

Assay [1] is described as follows: Induction of chondrogenesis in human MSC assessed as maximum activity at 10 nM incubated for 6 days by rhodamine B and Nile red staining based imaging analysis relative to control. The assay is classed as functional. The note with it: BMMSC, 144 h, time 6 day.
Assay [2] in a line: Effect on Wnt signaling pathway in human SW480 cells harbouring TCF/LEF luciferase reporter gene and SP5-Luc reporter gene incubated for 36 to 48 hrs by luminescence assay. In kind it is cell-based. On the technique in general: Reporter assays use an easily measured gene product as a stand-in for the process of interest.
For assay [3], the target named is Dual specificity tyrosine-phosphorylation-regulated kinase 1A (Homo sapiens, UniProt Q13627). Briefly: Inhibition of recombinant DYRK1A (unknown origin) using Ser/Thr 18 peptide as substrate incubated for 1 hr in presence of ATP by FRET assay.
Assay [4] addresses Dual specificity protein kinase CLK3 (Homo sapiens, UniProt P49761). Briefly: Inhibition of recombinant CLK3 (unknown origin) using Ser/Thr 18 peptide as substrate incubated for 1 hr in presence of ATP by FRET assay.
Assay [5] is described as follows: Inhibition of IL1-beta induced MMP3 expression levels in human chondrocytes assessed as MMP3 levels incubated for 2hrs followed by IL1-beta stimulation and measured after overnight incubation by LANCE assay. The note with it: Chondrocyte. The assay is classed as functional, cell-based.
A short description of assay [6]: Induction of chondrogenesis in human MSC assessed as incubated for 6 days by rhodamine B and Nile red staining based imaging analysis. In kind it is functional. The conditions noted are these: bmmsc.
Assay [7] can be described thus: Induction of chondrogenesis in human MSC assessed as maximum activity at 30 nM incubated for 6 days by rhodamine B and Nile red staining based imaging analysis relative to control. The assay is classed as functional. The note with it: BMMSC, 144 h, time 6 day.
A short description of assay [8]: Induction of chondrogenesis in human MSC assessed as maximum activity at 300 nM incubated for 6 days by rhodamine B and Nile red staining based imaging analysis relative to control. In kind it is functional. The note with it: BMMSC, 144 h, time 6 day.

Where only a bound is given, the exact number is not on record here.

Dual specificity protein kinase CLK3, sequence (P49761 whole entry): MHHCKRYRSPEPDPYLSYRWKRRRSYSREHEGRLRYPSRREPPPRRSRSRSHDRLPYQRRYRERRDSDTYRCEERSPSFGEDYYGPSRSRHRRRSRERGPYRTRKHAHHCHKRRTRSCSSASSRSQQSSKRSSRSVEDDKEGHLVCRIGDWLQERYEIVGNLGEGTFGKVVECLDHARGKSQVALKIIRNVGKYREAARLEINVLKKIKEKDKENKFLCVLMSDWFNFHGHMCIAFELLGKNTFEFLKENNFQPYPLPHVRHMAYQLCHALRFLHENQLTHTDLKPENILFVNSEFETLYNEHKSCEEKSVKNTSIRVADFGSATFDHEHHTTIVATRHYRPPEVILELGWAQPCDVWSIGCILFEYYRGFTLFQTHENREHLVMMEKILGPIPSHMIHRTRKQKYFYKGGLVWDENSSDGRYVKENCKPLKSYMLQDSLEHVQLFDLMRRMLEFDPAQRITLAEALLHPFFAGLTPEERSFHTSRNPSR

For the compound `Nc1cncc(-c2cc3c(-c4cc5c(-c6ccccc6F)ccnc5[nH]4)n[nH]c3cn2)c1`, the Emax at 0.01 µM in assay [1] amounted to 32.4%. In addition, the results for the EC50 in assay [2], in assay [3] and in assay [4] were above 10000 nM, 42 nM and above 10000 nM, respectively.
For `CN(C)CCNc1cc(F)cc(-c2cccc3[nH]c(-c4n[nH]c5ncc(-c6ccncc6)cc45)cc23)c1`, the EC50 in assay [2] was 6070 nM; in assay [3], above 10000 nM; in assay [5], 4 nM; in assay [4], above 10000 nM.
On to `CC(F)(F)CN1CCC(C(=O)Nc2cc3cc(-c4cnco4)cnc3cn2)CC1`, for which the EC50 in assay [2] was above 10000 nM; in assay [5] it was 3000 nM; in assay [4], above 10000 nM.
`Fc1ccc(-c2cccc3[nH]c(-c4n[nH]c5ccc(-c6cncnc6)nc45)nc23)cc1`: the EC50 in assay [2] is above 10000 nM; in assay [3], above 10000 nM; in assay [5], 3000 nM; in assay [4], above 10000 nM.
With `COc1cncc(-c2ccc3[nH]nc(-c4nc5c(N6CCCCC6)ccnc5[nH]4)c3n2)c1`, the EC50 is above 10000 nM in assay [2], above 10000 nM in assay [3], 123 nM in assay [5] and above 10000 nM in assay [4].
In the case of `CN1CCN(c2ccnc3[nH]c(-c4n[nH]c5ccc(-c6cncc(NC(=O)c7ccccc7)c6)nc45)cc23)CC1`, the Emax at 0.01 µM in assay [1] was 61.8%. Moreover, the EC50 in assay [2] is 6100 nM; in assay [6], 10 nM; in assay [3], 29 nM; in assay [4] it was 258 nM.
Take `COc1cccc(-c2cncc3[nH]c(-c4n[nH]c5ccc(-c6cncc(NC(=O)C7CCCCC7)c6)nc45)nc23)c1`: the EC50 in assay [2] is above 10000 nM; in assay [3], above 10000 nM; in assay [5], 3000 nM; in assay [4], above 10000 nM.
Regarding `Cc1n[nH]c2cc(F)c(-c3cncc(CN4CCCCC4)n3)cc12`, the EC50 in assay [2] is 2440 nM; in assay [3], 60 nM; in assay [5], 3000 nM; in assay [4], 3380 nM.
In the same order, the values of `Fc1cccc(-c2cncc3[nH]c(-c4n[nH]c5ccc(-c6cnccn6)nc45)nc23)c1` are above 10000 nM, above 10000 nM, 3000 nM and above 10000 nM.
On to `O=C(Nc1cncc(-c2cnc3[nH]nc(-c4cc5cccnc5[nH]4)c3c2)c1)c1ccccc1`, for which the Emax at 0.01 µM in assay [1] worked out at 21.8%. Further, the EC50 in assay [2] was above 10000 nM; in assay [3], 14 nM; in assay [4] it was above 10000 nM.
In the case of `CN1CC2CCC(C1)N2C(=O)Nc1cc2cc(-c3cnn(C)c3)ccc2cn1`, the EC50 in assay [2] and in assay [4] was above 10000 nM each time.
Consider `O=C(Nc1cc2cc(-c3cncs3)ccc2cn1)C1(F)CCCCC1`, for which the concentration for a half-maximal effect (EC50) in assay [2] is above 10000 nM; in assay [3], 8 nM; in assay [5] it was 3000 nM; in assay [4], above 10000 nM.
In the case of `COc1cncc(C#Cc2c[nH]nc2C(=O)Nc2ccc(N3CCNCC3)nc2)c1`, the Emax at 0.01 µM in assay [1] is 74.7%. Moreover, the EC50 was above 10000 nM in assay [2], 11 nM in assay [3] and above 10000 nM in assay [4].
Take `CC(C)Nc1cncc(-c2cnc3[nH]nc(-c4cc5c(-c6ccccc6F)ccnc5[nH]4)c3c2)c1`: in assay [1], the Emax at 0.01 µM was found to be 81.6%. In addition, the EC50 in assay [2] is above 10000 nM; in assay [6], 10 nM; in assay [3] it was 35 nM; in assay [4], above 10000 nM.
With `O=C(Cc1ccccc1)Nc1cncc(-c2ccc3[nH]nc(-c4cc5cnccc5[nH]4)c3c2)c1`, the Emax at 0.01 µM in assay [1] is 119%. The half-maximal effective concentration (EC50) was found to be 1760 nM in assay [2], 10 nM in assay [6], 8 nM in assay [3] and 180 nM in assay [4].
For the compound `O=C(Nc1cncc(-c2cc3c(-c4cc5c(-c6cccc(F)c6)ccnc5[nH]4)n[nH]c3cn2)c1)C1CC1`, the EC50 in assay [2] is 9.7 nM; in assay [3], above 10000 nM; in assay [5] it was 298 nM; in assay [4], above 10000 nM.
For the compound `O=C(Nc1cccnc1)Nc1c[nH]nc1C(=O)Nc1ccc(C(F)(F)F)nc1`, the EC50 in assay [2] is 679 nM; in assay [3], 22 nM; in assay [5], 8.7 nM; in assay [4] it was above 10000 nM.
In the case of `Nc1cncc(-c2cc3c(-c4cc5c(-c6ccncc6)cncc5[nH]4)n[nH]c3cn2)c1`, the EC50 is above 10000 nM in assay [2], 10 nM in assay [6], 3 nM in assay [3] and above 10000 nM in assay [4]. Moreover, the Emax at 0.03 µM in assay [7] came to 52%.
In the case of `O=C(Nc1cccnc1)c1n[nH]cc1C#Cc1cncc(OC2CCNCC2)c1`, the EC50 in assay [2] was 1270 nM; in assay [3], 24 nM; in assay [5], 0.2 nM; in assay [4], above 10000 nM.
With `O=C(Nc1cc2cc(-c3cnco3)cnc2cn1)[C@H]1CC[C@H](CO)CC1`, the EC50 in assay [2] and in assay [4] was above 10000 nM throughout.
In the case of `Nc1cncc(-c2cnc3[nH]nc(-c4cc5c(-c6ccncc6)ccnc5[nH]4)c3c2)c1`, the results for the EC50 in assay [2], in assay [3] and in assay [4] were above 10000 nM, 19 nM and above 10000 nM, respectively.
For the compound `O=C(Cc1ccccc1)Nc1cncc(-c2ccc3[nH]nc(-c4nc5c(-c6ccncc6)ccnc5[nH]4)c3n2)c1`, the EC50 in assay [2], in assay [3] and in assay [4] was above 10000 nM in each case.
Regarding `Fc1ccc(-c2cccc3[nH]c(-c4n[nH]c5ncc(-c6cncc(CN7CCCCC7)c6)cc45)cc23)cc1`, the EC50 is 3660 nM in assay [2], above 10000 nM in assay [3], 46.1 nM in assay [5] and above 10000 nM in assay [4].
With `c1csc(-c2ccnc3[nH]c(-c4n[nH]c5ccc(-c6cncc(OC7CCNCC7)c6)nc45)cc23)c1`, the Emax at 0.3 µM in assay [8] was 51.4%. Moreover, the half-maximal effective concentration (EC50) came out at 3550 nM in assay [2], 300 nM in assay [6] and 43 nM in assay [3].
In the same order, the values of `CCC(=O)Nc1cncc(-c2ccc3[nH]nc(-c4nc5c(N6CCCCC6)cncc5[nH]4)c3n2)c1` are 69.8%, above 10000 nM, 900 nM and 16 nM.
For `CN(C)CCOc1cc(C(=O)Nc2cc3cc(-c4cnn(C)c4)ccc3cn2)ccn1`, the EC50 was determined as 1010 nM in assay [5] and 30 nM in assay [4].
Regarding `O=C(Nc1cncc(-c2cnc3[nH]nc(-c4nc5c(-c6cccnc6)cncc5[nH]4)c3c2)c1)C1CCC1`, the Emax at 0.3 µM in assay [8] amounted to 130%. Moreover, the EC50 worked out at 35.4 nM in assay [2], 300 nM in assay [6] and 11 nM in assay [3].
Consider `CN1CCN(c2cccc3[nH]c(-c4n[nH]c5ccc(-c6cncc(CN7CCCCC7)c6)cc45)cc23)CC1`, for which the Emax at 0.3 µM in assay [8] was determined as 198%. Besides, the EC50 was determined as 4970 nM in assay [2], 100 nM in assay [6] and 35 nM in assay [3].
For `O=C(Nc1cncc(-c2cnc3[nH]nc(-c4nc5c(-c6cccc(F)c6)cncc5[nH]4)c3c2)c1)C1CC1`, in assay [8], the Emax at 0.3 µM stood at 148%. For the same compound, the EC50 in assay [2] came out at 11 nM; in assay [6], 10 nM; in assay [3] it was 75 nM.
Regarding `FC1(F)CCN(Cc2cncc(-c3ccc4[nH]nc(-c5cc6cccnc6[nH]5)c4n3)c2)C1`, the EC50 is 104 nM in assay [2], 100 nM in assay [6], 11 nM in assay [3] and 370 nM in assay [4]. The Emax at 0.03 µM in assay [7] worked out at 134%.
As for `Fc1ccc(-c2cncc3[nH]c(-c4n[nH]c5cnc(-c6cncc(CN7CCC(F)(F)C7)c6)cc45)cc23)cc1`, in assay [8], the Emax at 0.3 µM turned out to be 78.4%. Also, the EC50 in assay [2] was 3260 nM; in assay [6] it was 100 nM; in assay [3] it was 30 nM.
With `CC(C)N1CCC(c2nc(C(=O)Nc3cc4cc(-c5cnn(C)c5)ccc4cn3)co2)CC1`, the EC50 came to 80 nM in assay [2], 57.3 nM in assay [5] and 20 nM in assay [4].
Turning to `O=C(Nc1cncc(-c2ccc3[nH]nc(-c4cc5c(-c6ccncc6)nccc5[nH]4)c3c2)c1)C1CCCC1`, in assay [8], the Emax at 0.3 µM amounted to 114%. For the same compound, the EC50 in assay [2] was above 10000 nM; in assay [6] it was 30 nM; in assay [3], 11 nM.
In the same order, the values of `Nc1cncc(-c2cnc3[nH]nc(-c4cc5c(-c6ccccc6F)nccc5[nH]4)c3c2)c1` are 86%, 197 nM, 30 nM and 31 nM.
As to `O=C(Nc1c[nH]nc1C(=O)Nc1ccc(N2CCC(F)(F)C2)nc1)c1cncc(OC2CCNCC2)c1`, the Emax at 0.3 µM in assay [8] was 75.2%. Also, the values for the EC50 in assay [2], in assay [3] and in assay [5] were 2220 nM, 10 nM and 280 nM, respectively.
Regarding `O=C(Nc1ccc(OCCN2CCCC2)nc1)c1n[nH]cc1C#Cc1cccnc1`, the EC50 in assay [2] was 409 nM; in assay [3], 24 nM; in assay [4], above 10000 nM. The Emax at 0.03 µM in assay [7] was 68.8%.
Regarding `CN1CCN(c2ccnc3[nH]c(-c4n[nH]c5cnc(-c6cncc(CNCC7CCCC7)c6)cc45)cc23)CC1`, the Emax at 0.3 µM in assay [8] stood at 150%. Besides, the EC50 was above 10000 nM in assay [2], 300 nM in assay [6] and 51 nM in assay [3].
As to `COc1cccc(-c2cncc3[nH]c(-c4n[nH]c5ccc(-c6cn[nH]c6)nc45)nc23)c1`, the EC50 in assay [2], in assay [3] and in assay [4] was above 10000 nM throughout.
On to `CN(C)Cc1cncc(-c2cc3c(-c4nc5c(-c6cccc(F)c6)cccc5[nH]4)n[nH]c3cn2)c1`, for which the Emax at 0.3 µM in assay [8] worked out at 311%. Besides, the EC50 worked out at 82.2 nM in assay [2], 100 nM in assay [6] and 15 nM in assay [3].

The Emax is the greatest response seen or fitted, relative to the assay's reference. What is called EC50 is the concentration giving half of the maximal effect.
